Reference: PMC7848789 (SLAS discovery : advancing life sciences R & D, 2019)
Where a SMILES comes first, the peptide text is derived from it.

Experiments:
[1] = molecular target: Recombinant human HDAC1 enzyme (Homo sapiens, UniProt Q13547); assay: HDAC-Glo I/II enzymatic assay; type: biochemical; details: for Activity outcome in HDAC1 enzymatic HDAC-Glo I/II assay: qHTS, 11 concentrations, active = CRC class 1 and 2 and AUC>100; for Emax: read-out: % Efficacy, HDAC-Glo: HDAC1
[2] = test system: HDAC class I and II activity in HEK293T cells; assay: HDAC-Glo I/II cellular assay in HEK293T cells; type: cell-based; details: qHTS; 1 hour; active = CRC class 1 and 2 and AUC>100
HDAC1–86b = HDAC1–86b (Homo sapiens, UniProt Q13547); assay: HDAC1-86b SplitLuc CETSA in HEK293T cells; type: binding; details: for Activity outcome in SplitLuc CETSA (thermal stabilization of HDAC1–86b): 49°C, active = CRC class 1 and 2 and AUC>50; for Average IC50 ± SD (% Efficacy), SplitLuc CETSA: HEK293T: thermal stabilization at 49°C, n=2
[3] = molecular target: HDAC1-NanoLuc fusion protein (Homo sapiens, UniProt Q13547); assay: HDAC1 NanoBRET target engagement assay in HEK293T cells; type: binding; details: for Average IC50 ± SD, NanoBRET: HEK293T: n=2; for Average IC50 ± SD, NanoBRET: HEK293T / Activity outcome in NanoBRET (HDAC1 engagement, displacement of SAHA tracer): HEK293T; for Activity outcome in NanoBRET (HDAC1 engagement, displacement of SAHA tracer): 28.9 μM to 0.49 nM, active = CRC class 1 and 2 and AUC>100; for Emax: read-out: % Efficacy, NanoBRET: HEK293T
HDAC1-NanoLuc fusion protein, sequence (Q13547 whole entry, the tested form may be a part): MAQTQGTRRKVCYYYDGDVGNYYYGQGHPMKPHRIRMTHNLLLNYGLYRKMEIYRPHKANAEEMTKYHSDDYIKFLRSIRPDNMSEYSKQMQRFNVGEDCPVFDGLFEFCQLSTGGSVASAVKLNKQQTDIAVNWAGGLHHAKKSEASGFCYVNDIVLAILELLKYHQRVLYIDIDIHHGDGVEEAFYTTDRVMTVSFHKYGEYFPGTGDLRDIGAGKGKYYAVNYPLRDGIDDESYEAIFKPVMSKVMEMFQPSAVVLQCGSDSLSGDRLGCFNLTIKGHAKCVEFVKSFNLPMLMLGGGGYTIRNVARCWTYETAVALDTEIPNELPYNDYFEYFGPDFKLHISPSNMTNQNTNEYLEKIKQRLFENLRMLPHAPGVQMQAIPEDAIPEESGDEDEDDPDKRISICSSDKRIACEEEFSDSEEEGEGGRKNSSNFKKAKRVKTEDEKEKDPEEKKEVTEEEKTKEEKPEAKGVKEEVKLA

HDAC1–86b, sequence (Q13547 whole entry, the tested form may be a part): as above
Recombinant human HDAC1 enzyme, sequence (Q13547 whole entry): as the sequence (Q13547 whole entry, the tested form may be a part) above

Structure (SMILES) | Activity outcome in HDAC1 enzymatic HDAC-Glo I/II assay [1] | Activity outcome in HEK293T cellular HDAC-Glo I/II assay [2] | IC50 [1] [µM] | Emax [1] [%] | also measured
NC(=O)c1cccc2[nH]c(-c3ccc([C@@H]4CCCN4)cc3F)nc12 [A-966492] | active |  |  |  | 
Cn1cc(C(=O)Cc2ccccc2)cc1/C=C/C(=O)NO [APHA Compound 8] | active | either inactive or did not pass the activity cutoff |  |  | 
CCCSc1ccc2nc(NC(=O)OC)[nH]c2c1 [Albendazole] |  |  | 7.7 ± 0.8 | 93 | 
CCC(=O)CCCCC[C@@H]1NC(=O)[C@H]2CCCCN2C(=O)[C@H]([C@@H](C)CC)NC(=O)[C@H](Cc2cn(OC)c3ccccc23)NC1=O [Apicidin] | most potent | most potent |  |  | Activity outcome in SplitLuc CETSA (thermal stabilization of HDAC1–86b) (HDAC1–86b): most potent
CNC(=O)c1ccccc1Sc1ccc2c(/C=C/c3ccccn3)n[nH]c2c1 [Axitinib] |  |  | 3 ± 0.2 | 90 | Average IC50 ± SD (% Efficacy), SplitLuc CETSA: HEK293T (HDAC1–86b): Inactive; Average IC50 ± SD, NanoBRET: HEK293T [3]: Inactive
COc1ccc(-c2nc(N3CCOCC3)c3sc(CN(C)c4ncc(C(=O)NO)cn4)cc3n2)cn1 [CUDC-907] | most potent | most potent |  |  | Activity outcome in SplitLuc CETSA (thermal stabilization of HDAC1–86b) (HDAC1–86b): most potent
CN(C)C(=O)COC(=O)Cc1ccc(OC(=O)c2ccc(NC(=N)N)cc2)cc1 [Camostat] |  |  | 1.1 ± 0.1 | 95 | Average IC50 ± SD (% Efficacy), SplitLuc CETSA: HEK293T (HDAC1–86b): Inactive; IC50 [3]: 8.2 ± 1.4 µM; Activity outcome in NanoBRET (HDAC1 engagement, displacement of SAHA tracer) [3]: weakly engage HDAC1; Emax [3]: 90%
O=C(/C=C/c1ccc(CN(CCO)CCc2c[nH]c3ccccc23)cc1)NO [Dacinostat] |  | most potent |  |  | 
O=S(=O)(O)c1ccc2[nH]c(-c3ccccc3)nc2c1 [Ensulizole] |  |  | 2.4 ± 0.3 | 99 | 
O=C(CCCCCCSc1ccc2ccccc2c1)NO [HNHA] | inactive | inactive |  |  | 
O=C(NO)c1ccc(CC(=O)N(CCO)c2ccccc2)cc1 [HPOB] | weak activity | weak activity |  |  | Activity outcome in SplitLuc CETSA (thermal stabilization of HDAC1–86b) (HDAC1–86b): did not pass the activity cutoff; Activity outcome in NanoBRET (HDAC1 engagement, displacement of SAHA tracer) [3]: did not pass the activity cutoff
Cc1oncc1C(=O)Nc1ccc(C(F)(F)F)cc1 [Leflunomide] |  |  | 3 ± 0.2 | 96 | Average IC50 ± SD (% Efficacy), SplitLuc CETSA: HEK293T (HDAC1–86b): Inactive; Average IC50 ± SD, NanoBRET: HEK293T [3]: Inactive
N=C(N)c1ccc2cc(OC(=O)c3ccc(N=C(N)N)cc3)ccc2c1 [Nafamostat] |  |  | 1.3 ± 0.1 | 97 | Average IC50 ± SD (% Efficacy), SplitLuc CETSA: HEK293T (HDAC1–86b): Inactive; IC50 [3]: 11.8 ± 2.9 µM; Activity outcome in NanoBRET (HDAC1 engagement, displacement of SAHA tracer) [3]: weakly engage HDAC1; Emax [3]: 37%
CCCCN(Cc1ccc(C(=O)NO)cc1)C(=O)Nc1ccccc1 [Nexturastat A] |  |  |  |  | Activity outcome in NanoBRET (HDAC1 engagement, displacement of SAHA tracer) [3]: engagement
O=C(Nc1ccc([N+](=O)[O-])cc1Cl)c1cc(Cl)ccc1O [Niclosamide] |  |  | 2.8 ± 0.01 | 99 | Average IC50 ± SD (% Efficacy), SplitLuc CETSA: HEK293T (HDAC1–86b): Inactive; Average IC50 ± SD, NanoBRET: HEK293T [3]: Inactive
CC(=O)Oc1ccccc1C(=O)Nc1ncc([N+](=O)[O-])s1 [Nitazoxanide] |  |  | 5.1 ± 0.3 | 95 | 
CC(C)C(=O)SCCCCCCC(=O)Nc1nc(-c2ccccc2)cs1 [PTACH] | inactive | showed HDAC inhibition |  |  | Activity outcome in NanoBRET (HDAC1 engagement, displacement of SAHA tracer) [3]: engagement
O=C(CCCCCCC(=O)Nc1cccnc1)NO [Pyroximide] |  | inactive |  |  | 
Cn1cc(CNCC2CCN(c3ncc(C(=O)NO)cn3)CC2)c2ccccc21 [Quisinostat] | most potent | most potent |  |  | Activity outcome in SplitLuc CETSA (thermal stabilization of HDAC1–86b) (HDAC1–86b): most potent
COc1cc(OC)c2c(=O)[nH]c(-c3cc(C)c(OCCO)c(C)c3)nc2c1 [RVX-208] | active |  |  |  | 
Oc1ccc(/C=C/c2cc(O)cc(O)c2)cc1 [Resveratrol] |  |  | 1.5 ± 0.01 | 95 | Average IC50 ± SD (% Efficacy), SplitLuc CETSA: HEK293T (HDAC1–86b): Inactive
O=C(Nc1ncc([N+](=O)[O-])s1)c1cccs1 [Tenonitrozole] |  |  | 1.7 ± 0.01 | 93 | 
c1ccc2[nH]c(-c3cscn3)nc2c1 [Thiabendazole] |  |  | 3.8 ± 0.6 | 90 | Average IC50 ± SD (% Efficacy), SplitLuc CETSA: HEK293T (HDAC1–86b): Inactive; Average IC50 ± SD, NanoBRET: HEK293T [3]: Inactive
O=C(CCCCC[C@@H]1NC(=O)[C@H]2CCCCN2C(=O)[C@H](Cc2ccccc2)NC(=O)[C@H](Cc2ccccc2)NC1=O)C1CO1 (stereo partly shown) [Trapoxin A] (HELM PEPTIDE1{F.F.[O=C([C@H]1CCCCN1[*:1])[*:2]].[O=C(CCCCC[C@H](N[*:1])C(=O)[*:2])C1CO1]}$PEPTIDE1,PEPTIDE1,1:R1-4:R2$$$V2.0) | most potent | most potent |  |  | Activity outcome in SplitLuc CETSA (thermal stabilization of HDAC1–86b) (HDAC1–86b): most potent
O=C(CCCCCCC(=O)Nc1ccc([C@H]2O[C@@H](CSc3nc(-c4ccccc4)c(-c4ccccc4)o3)C[C@@H](c3ccc(CO)cc3)O2)cc1)NO [Tubacin] | weak activity | weak activity |  |  | Activity outcome in SplitLuc CETSA (thermal stabilization of HDAC1–86b) (HDAC1–86b): did not pass the activity cutoff; Activity outcome in NanoBRET (HDAC1 engagement, displacement of SAHA tracer) [3]: did not pass the activity cutoff
CN1CCc2c(c3ccccc3n2Cc2ccc(C(=O)NO)cc2)C1 [Tubastatin A] | weak activity | weak activity |  |  | Activity outcome in SplitLuc CETSA (thermal stabilization of HDAC1–86b) (HDAC1–86b): inactive; Activity outcome in NanoBRET (HDAC1 engagement, displacement of SAHA tracer) [3]: inactive
CCCCNNC(=O)c1ccc(Br)cc1 [UF 010] | weak activity | weak activity |  |  | Activity outcome in SplitLuc CETSA (thermal stabilization of HDAC1–86b) (HDAC1–86b): did not pass the activity cutoff; Activity outcome in NanoBRET (HDAC1 engagement, displacement of SAHA tracer) [3]: did not pass the activity cutoff
